Target: T1, T7 RNA polymerase (Escherichia phage T7, UniProt P00573)
T1 construct: purchased
Test: Capped mRNA synthesis by in vitro transcription with cap analog (product amount, Nanodrop One)
Format: biochemical
Details: per 1 mL reaction system; in vitro transcription at 37°C, 4 hours; purified mRNA quantified with Nanodrop One
Excerpt: • a) A plasmid was linearized and a DNA template was purified. • b) Capping analogs of the present invention and Comparative Example 1 Trilink CleanCap, cap analogs of Comparative Example 2 and Comparative Example 3 were used to synthesize mRNA by in vitro transcription, respectively. Comparative Example 1 was commercially purchased, and Comparative Example 2 and Comparative Example 3 were obtained according to the method disclosed in WO2022/036858. [drawing 172]
Table 1 In vitro transcription system
c) During the experiment, the above reagents were fully mixed and incubated at 37°C. After 4 hours, deoxyribonuclease (DNase) was added and incubated for 30 minutes to remove the DNA template. After digestion, LiCl solution was added, precooled and centrifuged at 1,6000 rpm for 15 minutes to remove the supernatant. 70% ethanol was added and centrifuged to remove the supernatant again, and then a certain amount of enzyme-free water was added for storage. […] Table 2 amount (mg) of final product obtained per 1 mL of mRNA synthesis reaction system

T1 sequence (P00573 whole entry): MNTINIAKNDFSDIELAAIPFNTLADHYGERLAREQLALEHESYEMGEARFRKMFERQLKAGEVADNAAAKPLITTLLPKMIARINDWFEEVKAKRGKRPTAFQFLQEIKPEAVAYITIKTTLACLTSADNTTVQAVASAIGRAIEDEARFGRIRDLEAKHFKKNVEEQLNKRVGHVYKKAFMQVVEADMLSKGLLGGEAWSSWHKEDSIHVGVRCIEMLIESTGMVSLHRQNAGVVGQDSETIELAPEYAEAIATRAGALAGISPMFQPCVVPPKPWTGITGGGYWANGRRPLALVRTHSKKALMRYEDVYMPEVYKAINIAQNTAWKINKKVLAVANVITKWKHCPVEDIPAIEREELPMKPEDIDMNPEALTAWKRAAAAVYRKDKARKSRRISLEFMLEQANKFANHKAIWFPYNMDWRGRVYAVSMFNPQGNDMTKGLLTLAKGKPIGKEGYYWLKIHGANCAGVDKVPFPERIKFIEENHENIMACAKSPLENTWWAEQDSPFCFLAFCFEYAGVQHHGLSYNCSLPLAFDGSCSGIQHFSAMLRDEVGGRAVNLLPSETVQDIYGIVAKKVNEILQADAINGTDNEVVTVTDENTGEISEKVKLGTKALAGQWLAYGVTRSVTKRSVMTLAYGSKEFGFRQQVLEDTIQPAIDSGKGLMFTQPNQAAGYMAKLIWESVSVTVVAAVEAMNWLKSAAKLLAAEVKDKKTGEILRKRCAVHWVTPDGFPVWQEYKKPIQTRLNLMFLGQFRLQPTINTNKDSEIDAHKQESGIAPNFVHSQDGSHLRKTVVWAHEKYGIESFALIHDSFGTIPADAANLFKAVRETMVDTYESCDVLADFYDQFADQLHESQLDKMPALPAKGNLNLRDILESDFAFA

| Compound | Product amount: amount (mg) of final product obtained per 1 mL of mRNA synthesis reaction system [mg] |
| --- | --- |
| C[n+]1cn([C@@H]2O[C@H](COP(=O)(O)OP(=O)(O)OP(=O)(O)OC[C@H]3O[C@@H](n4cnc5c(N)ncnc54)[C@H](O)[C@@H]3OP(=O)(O)OC[C@H]3O[C@@H](n4cnc5c(=O)[nH]c(N)nc54)[C@H](F)[C@@H]3O)[C@@H](O)[C@H]2O)c2nc(N)[nH]c(=O)c21 [Compound 8] | 4.7 |
| C[n+]1cn([C@@H]2O[C@H](COP(=O)(O)OP(=O)(O)OP(=O)(O)OC[C@H]3O[C@@H](n4ccc(=O)[nH]c4=O)[C@H](F)[C@@H]3OP(=O)(O)OC[C@H]3O[C@@H](n4cnc5c(=O)[nH]c(N)nc54)[C@H](F)[C@@H]3O)[C@@H](O)[C@H]2O)c2nc(N)[nH]c(=O)c21 [Compound 68] | 5.8 |

Reference: patent EP4644403A1, “HALOGEN-CONTAINING COMPOUNDS USED FOR CAPPING THE 5' END OF NUCLEIC ACID AND USE THEREOF” (Shenzhen Rhegen Biotechnology Co., Ltd., priority 2023, dated 2024)
